One experiment addresses T1, BCL6 (Homo sapiens, UniProt P41182, C67R/C84N/C8Q).
T1 construct: hBCL6-Flag-6H-Avi 3Cmut (5–129) produced as part of the GSK/GenScript collaboration; Flag (C); 6H (His6) (C); Avi (C)
Description: Identification of site(s) of covalent modification by tandem MS. The following applies: 2 μM BCL6, 100 μM SF, 4 °C, 24 h; trypsin digest LC-MS/MS. On the procedure:
The top hits from the SF screen with BCL6 represented two distinct chemotypes: meta-substituted benzamides (2f and 2g) and azetidine aryl ethers (2h and 2i). These were resynthesized and purified for follow-up studies. […] Tyr57 has previously been targeted by a BCL6 inhibitor (14, TMX-2164); however, the targeting of His115 is a novel modification; these residues are located on opposite sides of the binding site of previously reported BCL6 inhibitors (11–14) (see Figure 5b).
7. BCL6 – site of binding studies and iterative screen
7.1. Identification of the site(s) of covalent modification by tandem MS (BCL6)
The (resynthesized and purified) SF hits (2f–i) were plated into a Greiner 384 PP F-bottom plate from a 10 mM source in DMSO. Purified BCL6 diluted from original stock into a buffer made up of HEPES (pH 7.5, 25 mM) and NaCl (50 mM) in distilled MS-grade water (50 µL per well) was subsequently added across the plate. Final concentrations: 2 µM protein; 100 µM SF. The plate was sealed, centrifuged (1 min, 1000 rpm), incubated at 4 °C for 24 h, and 15 µL aliquots were subsequently removed and analyzed by intact protein LC-MS.
The remaining samples (1 μg) were separated by SDS-PAGE to remove excess unbound compound. Gels were stained with colloidal Comassie InstantBlue and bands corresponding to BCL6 were excised, reduced with 10 mM TCEP (65 °C, 30 mins), and alkylated with 10 mM iodoacetamide (r.t., 30 mins, dark). Samples were digested with trypsin (Promega) 1:10 E:S (37 °C, 16 h) in 100 mM ammonium bicarbonate. After removal of the supernatant, peptides were extracted using acetonitrile. Combined supernatants were concentrated in a SpeedVac centrifuge and acidified (0.1% formic acid, 0.05% trifluoroacetic acid) prior to injection into the LC-MS/MS system.
Digested samples were injected on an Easy-nLC 1200 UHPLC system (Thermo Scientific). The nanoLC was interfaced to an Orbitrap Fusion Lumos Mass Spectrometer (Thermo Scientific). Tryptic peptides were loaded on a 2 cm × 75 µm Acclaim PepMap 100 C18 trapping column (Thermo Scientific) and separated on a 25 cm × 75 μm, 2 µm particles, PepMap C18, 2 μm particle column (Thermo Scientific) using a 50 min gradient of 2–38% acetonitrile, 0.2% formic acid and a flow of 300 nL/min. LC-MS/MS based peptide sequencing was performed by data dependent analysis (DDA). Full MS 350–1600 Da at 120,000 resolution, MS AGC target 1e6, MS Maximum IT 50 ms, followed by MS/MS using a 3 sec. cycle time, stepped collision energy mode at 25, 29 and 32 CE%, Isolation window 1.6 m/z, fixed first mass 145 m/z, 15,000 orbitrap resolution, MS/MS AGC target 1e5 and MS/MS Maximum IT 200 ms. Alternatively, samples were analyzed by Parallel Reaction Monitoring (PRM) targeting precursor ions relative to the modified peptides. […]

The next experiment has as its target BCL6 BTB/POZ domain (Homo sapiens, UniProt P41182, C67R/C84N/C8Q). Nature of the experiment: Displacement study with GSK137, intact protein LC-MS. Format: binding. Further details: hBCL6-Flag-6H-Avi 3Cmut (5–129) produced as part of the GSK/GenScript collaboration; Flag (C); 6H (His6) (C); Avi (C). The following applies: for Modification (GSK137 treatment) / Modification (DMSO-d6 treatment): 1 μM protein, 50 μM SF, 20 °C, 24 h, average of duplicate; for Modification (GSK137 treatment): 50 μM GSK137; for Displacement Ratio: DModification/Modification(DMSO-d6 treatment); for Displacement: attenuation of covalent modification by GSK137; for DModification: difference DMSO-d6 vs GSK137 treatment. From the text:
With additional hits identified from the iterative screen, we sought to obtain further structural and biophysical information to better understand how these reactive fragments bind to BCL6. A total of eight SF hits were resynthesized and purified: the four from the original screen (2f–i) and four from the iterative screen (2p, 2q, 2s, and 2t). […]
8. BCL6 – Further investigations into hits by structural and biophysical studies
8.1. Displacement study with GSK137
The (resynthesized and purified) SF hits (2f–i, 2p, 2q, 2s, and 2t) were plated into a Greiner 384 white low volume plate from a 10 mM source in DMSO, or DMSO-d 6 only as a control. GSK137 (11) was also added from a 10 mM source in DMSO. Purified BCL6 diluted from original stock into a buffer made up of HEPES (pH 7.5, 25 mM) and NaCl (50 mM) in distilled MS-grade water (15 µL per well) was subsequently added across the plate. Final concentrations: 1 µM protein; 50 µM SF; 50 µM GSK137. The plate was sealed, centrifuged (1 min, 1000 rpm), incubated at 20 °C for 24 h, and subsequently analyzed by intact protein LC-MS. This was performed in duplicate and average covalent modification yields were used for analysis.
Table S8. Quantitative output from intact LC-MS analysis of BCL6 BTB/POZ domain reacted with SFs after incubation of DMSO-d 6 or GSK137. Extent of displacement measured as (DModification/Modification(DMSO-d 6 treatment)). […]

`NC(=O)c1ccccc1OC1CN(C(=O)Cc2ccc(S(=O)(=O)F)cc2)C1` [2i]: at BCL6, the “site of covalent modification” value is on record as “His115”. In addition, on BCL6 BTB/POZ domain, the “Modification (GSK137 treatment)” value was 1.6%, the “Modification (DMSO-d6 treatment)” value came to 19.7%, the “Displacement Ratio” value turned out to be 0.92 and the Displacement worked out at 92%. Further, the DModification on BCL6 BTB/POZ domain was 18.1%.
As to `O=C(Cc1ccc(S(=O)(=O)F)cc1)N1CC(Oc2ccc(F)c(F)c2)C1` [2h], the “site of covalent modification” value on BCL6 is “His115”. On BCL6 BTB/POZ domain, the “Modification (GSK137 treatment)” value came to 1.6%, the “Modification (DMSO-d6 treatment)” value worked out at 10.3%, the “Displacement Ratio” value is given as 0.84 and the Displacement is reported as 84%. This molecule also registered a DModification at BCL6 BTB/POZ domain of 8.7%.
In the case of `CC(=O)Nc1cccc(CNC(=O)Cc2ccc(S(=O)(=O)F)cc2)c1` [2g], the “site of covalent modification” value on BCL6 is given as “Tyr57”. Besides, at BCL6 BTB/POZ domain, the “Modification (GSK137 treatment)” value worked out at 4.8%, the “Modification (DMSO-d6 treatment)” value was found to be 25.0%, the “Displacement Ratio” value amounted to 0.81 and the Displacement is listed as 81%. At BCL6 BTB/POZ domain, this molecule returned a DModification of 20.2%.
`CN(C)C(=O)Nc1cccc(CNC(=O)Cc2ccc(S(=O)(=O)F)cc2)c1` [2f]: the “site of covalent modification” value on BCL6 is “Tyr57”. Moreover, at BCL6 BTB/POZ domain, the “Modification (GSK137 treatment)” value turned out to be 3.8%, the “Modification (DMSO-d6 treatment)” value amounted to 17.6%, the “Displacement Ratio” value is recorded as 0.78 and the Displacement is reported as 78%. For the same molecule, the DModification at BCL6 BTB/POZ domain was found to be 13.8%.

Values taken from PMC10510102, “Efficient Ligand Discovery Using Sulfur(VI) Fluoride Reactive Fragments” (ACS Chemical Biology, 2023).
